From PubChem BioAssay AID1919000 (Molecular Pharmacology Branch, DTP, NCI, 2023)

System: 653999-131-R-J2-PDC complex spheroids, growth % test/control
Experiment: Anticancer human tumor 653999-131-R-J2-PDC patient-derived lung adenocarcinoma cell line growth inhibition [AhR]
Settings: for IC50: curve of first compound; for viability, T/C: stronger effect = lower value
Outline: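 Agents were dosed in half-log steps down from roughly clinical Cmax, or from 10 microM where Cmax was unknown, alone and with AhR antagonists. Read-out: percent test/control growth of tumor spheroids containing HUVEC and MSC stromal cells.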

[1] = second compound 0.1 µM, first compound 0.0316 µM
[2] = second compound 0.1 µM, first compound 0.1 µM
[3] = second compound 0.1 µM, first compound 0.316 µM
[4] = second compound 0.1 µM, first compound 1 µM
[5] = second compound 0.1 µM, first compound 3.16 µM
[6] = second compound 0.1 µM, first compound 10 µM
[7] = second compound 0.316 µM, first compound 0.0316 µM
[8] = second compound 0.316 µM, first compound 0.1 µM
[9] = second compound 0.316 µM, first compound 0.316 µM
[10] = second compound 0.316 µM, first compound 1 µM
[11] = second compound 0.316 µM, first compound 3.16 µM
[12] = second compound 0.316 µM, first compound 10 µM
[13] = second compound 1 µM, first compound 0.0316 µM
[14] = second compound 1 µM, first compound 0.1 µM
[15] = second compound 1 µM, first compound 0.316 µM
[16] = second compound 1 µM, first compound 1 µM
[17] = second compound 1 µM, first compound 3.16 µM
[18] = second compound 1 µM, first compound 10 µM
[19] = second compound 3.16 µM, first compound 0.0316 µM
[20] = second compound 3.16 µM, first compound 0.1 µM
[21] = second compound 3.16 µM, first compound 0.316 µM
[22] = second compound 3.16 µM, first compound 1 µM
[23] = second compound 3.16 µM, first compound 3.16 µM
[24] = second compound 3.16 µM, first compound 10 µM
[25] = second compound 10 µM, first compound 0.0316 µM
[26] = second compound 10 µM, first compound 0.1 µM
[27] = second compound 10 µM, first compound 0.316 µM
[28] = second compound 10 µM, first compound 1 µM
[29] = second compound 10 µM, first compound 3.16 µM
[30] = second compound 10 µM, first compound 10 µM
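Also: spheroids exposed to agents for seven days.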
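For viability, T/C in this document: 100% = DMSO vehicle control viability.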

SMILES: COc1cc(Nc2ncc3c(n2)-c2ccc(Cl)cc2C(c2c(F)cccc2OC)=NC3)ccc1C(=O)O + CC(CO)NC(=O)c1cc(-c2ccc(Cl)cc2)nn(-c2cnn(C)c2)c1=O
- IC50 (second compound 0.1 µM): > 10 µM
- IC50 (second compound 0.316 µM): > 10 µM
- IC50 (second compound 1 µM): > 10 µM
- IC50 (second compound 3.16 µM): > 10 µM
- IC50 (second compound 10 µM): > 10 µM
- viability, T/C [1]: 95%
- viability, T/C [2]: 80.9%
- viability, T/C [3]: 77.6%
- viability, T/C [4]: 76.8%
- viability, T/C [5]: 66%
- viability, T/C [6]: 64%
- viability, T/C [7]: 92.6%
- viability, T/C [8]: 73.5%
- viability, T/C [9]: 74.8%
- viability, T/C [10]: 62.4%
- viability, T/C [11]: 70.8%
- viability, T/C [12]: 65.2%
- viability, T/C [13]: 98.2%
- viability, T/C [14]: 76.1%
- viability, T/C [15]: 83.9%
- viability, T/C [16]: 70.8%
- viability, T/C [17]: 77.8%
- viability, T/C [18]: 68.5%
- viability, T/C [19]: 94.2%
- viability, T/C [20]: 83%
- viability, T/C [21]: 79.1%
- viability, T/C [22]: 74.7%
- viability, T/C [23]: 77.5%
- viability, T/C [24]: 77.4%
- viability, T/C [25]: 92.8%
- viability, T/C [26]: 81%
- viability, T/C [27]: 78.4%
- viability, T/C [28]: 74%
- viability, T/C [29]: 67.9%
- viability, T/C [30]: 80.4%

SMILES: CC(C)CC(NC(=O)C(Cc1ccccc1)NC(=O)c1cnccn1)B(O)O (stereo not given) + Cc1cncc(-c2nc(NCCc3c[nH]c4ccccc34)c3ncn(C(C)C)c3n2)c1
- IC50 (second compound 0.1 µM): 0.0223 µM
- IC50 (second compound 0.316 µM): 0.0204 µM
- IC50 (second compound 1 µM): 0.0214 µM
- IC50 (second compound 3.16 µM): 0.0204 µM
- IC50 (second compound 10 µM): 0.00428 µM
- viability, T/C (second compound 0.1 µM, first compound 0.000949 µM): 94.5%
- viability, T/C (second compound 0.1 µM, first compound 0.003 µM): 130%
- viability, T/C (second compound 0.1 µM, first compound 0.00949 µM): 103%
- viability, T/C (second compound 0.1 µM, first compound 0.03 µM): 29.3%
- viability, T/C (second compound 0.1 µM, first compound 0.0949 µM): 9.65%
- viability, T/C (second compound 0.1 µM, first compound 0.3 µM): 3.26%
- viability, T/C (second compound 0.316 µM, first compound 0.000949 µM): 108%
- viability, T/C (second compound 0.316 µM, first compound 0.003 µM): 108%
- viability, T/C (second compound 0.316 µM, first compound 0.00949 µM): 113%
- viability, T/C (second compound 0.316 µM, first compound 0.03 µM): 20%
- viability, T/C (second compound 0.316 µM, first compound 0.0949 µM): 8.44%
- viability, T/C (second compound 0.316 µM, first compound 0.3 µM): 2.71%
- viability, T/C (second compound 1 µM, first compound 0.000949 µM): 100%
- viability, T/C (second compound 1 µM, first compound 0.003 µM): 126%
- viability, T/C (second compound 1 µM, first compound 0.00949 µM): 112%
- viability, T/C (second compound 1 µM, first compound 0.03 µM): 24%
- viability, T/C (second compound 1 µM, first compound 0.0949 µM): 7.89%
- viability, T/C (second compound 1 µM, first compound 0.3 µM): 3.25%
- viability, T/C (second compound 3.16 µM, first compound 0.000949 µM): 118%
- viability, T/C (second compound 3.16 µM, first compound 0.003 µM): 121%
- viability, T/C (second compound 3.16 µM, first compound 0.00949 µM): 112%
- viability, T/C (second compound 3.16 µM, first compound 0.03 µM): 18.5%
- viability, T/C (second compound 3.16 µM, first compound 0.0949 µM): 4.53%
- viability, T/C (second compound 3.16 µM, first compound 0.3 µM): 2.13%
- viability, T/C (second compound 10 µM, first compound 0.000949 µM): 59.6%
- viability, T/C (second compound 10 µM, first compound 0.003 µM): 66.7%
- viability, T/C (second compound 10 µM, first compound 0.00949 µM): 20.5%
- viability, T/C (second compound 10 µM, first compound 0.03 µM): 2.12%
- viability, T/C (second compound 10 µM, first compound 0.0949 µM): 0.89%
- viability, T/C (second compound 10 µM, first compound 0.3 µM): 0.72%

SMILES: COc1cc(Nc2ncc3c(n2)-c2ccc(Cl)cc2C(c2c(F)cccc2OC)=NC3)ccc1C(=O)O + Cc1ccccc1N=Nc1ccc(NC(=O)c2ccnn2C)c(C)c1
- IC50 (second compound 0.1 µM): > 10 µM
- IC50 (second compound 0.316 µM): > 10 µM
- IC50 (second compound 1 µM): > 10 µM
- IC50 (second compound 3.16 µM): > 10 µM
- IC50 (second compound 10 µM): > 10 µM
- viability, T/C [1]: 87.8%
- viability, T/C [2]: 74.9%
- viability, T/C [3]: 71.1%
- viability, T/C [4]: 58.2%
- viability, T/C [5]: 57.1%
- viability, T/C [6]: 64.3%
- viability, T/C [7]: 93.4%
- viability, T/C [8]: 70.9%
- viability, T/C [9]: 71.9%
- viability, T/C [10]: 67.3%
- viability, T/C [11]: 57.9%
- viability, T/C [12]: 60.1%
- viability, T/C [13]: 81%
- viability, T/C [14]: 74%
- viability, T/C [15]: 66.8%
- viability, T/C [16]: 62.2%
- viability, T/C [17]: 60.6%
- viability, T/C [18]: 53.8%
- viability, T/C [19]: 83%
- viability, T/C [20]: 62.8%
- viability, T/C [21]: 70.5%
- viability, T/C [22]: 61.2%
- viability, T/C [23]: 62.9%
- viability, T/C [24]: 54.6%
- viability, T/C [25]: 80.2%
- viability, T/C [26]: 66.9%
- viability, T/C [27]: 63.2%
- viability, T/C [28]: 71%
- viability, T/C [29]: 56.5%
- viability, T/C [30]: 54.4%

SMILES: Nc1ncn(C2CC(O)C(CO)O2)c(=O)n1 (stereo not given) + Cc1ccccc1N=Nc1ccc(NC(=O)c2ccnn2C)c(C)c1
- IC50 (second compound 0.1 µM): > 1 µM
- IC50 (second compound 0.316 µM): > 1 µM
- IC50 (second compound 1 µM): > 1 µM
- IC50 (second compound 3.16 µM): > 1 µM
- IC50 (second compound 10 µM): > 1 µM
- viability, T/C (second compound 0.1 µM, first compound 0.00316 µM): 97.5%
- viability, T/C (second compound 0.1 µM, first compound 0.01 µM): 99.3%
- viability, T/C [1]: 95.5%
- viability, T/C [2]: 87.5%
- viability, T/C [3]: 79.9%
- viability, T/C [4]: 76.9%
- viability, T/C (second compound 0.316 µM, first compound 0.00316 µM): 100%
- viability, T/C (second compound 0.316 µM, first compound 0.01 µM): 93.8%
- viability, T/C [7]: 80.8%
- viability, T/C [8]: 83.2%
- viability, T/C [9]: 81.1%
- viability, T/C [10]: 71.7%
- viability, T/C (second compound 1 µM, first compound 0.00316 µM): 87.5%
- viability, T/C (second compound 1 µM, first compound 0.01 µM): 94.6%
- viability, T/C [13]: 88%
- viability, T/C [14]: 93.3%
- viability, T/C [15]: 78.9%
- viability, T/C [16]: 78.1%
- viability, T/C (second compound 3.16 µM, first compound 0.00316 µM): 88.6%
- viability, T/C (second compound 3.16 µM, first compound 0.01 µM): 92.9%
- viability, T/C [19]: 88%
- viability, T/C [20]: 77.8%
- viability, T/C [21]: 84.7%
- viability, T/C [22]: 72.7%
- viability, T/C (second compound 10 µM, first compound 0.00316 µM): 84.3%
- viability, T/C (second compound 10 µM, first compound 0.01 µM): 78.7%
- viability, T/C [25]: 82.7%
- viability, T/C [26]: 78.6%
- viability, T/C [27]: 77.5%
- viability, T/C [28]: 70.8%
